Measured values taken from publication PMC5730592, “Parallelogram based approach for in vivo dose estimation of genotoxic metabolites in humans with relevance to reduction of animal experiments” (Scientific Reports, 2017).
Several values for one entry are separate records, joined by “and”; a condition that tells them apart may be missing. Identical values can stand only once. Like-named read-outs stand apart in the source and are kept apart here.

Columns and labels:
[1] = In vivo dose (AUC) in rat calculated from measured Hb adduct levels after AA exposure; details: rat in vivo study used (AA in drinking water)
Experimental: (§1) The in vivo dose or AUC of a compound in blood is the concentration integrated over time (Eq. 2).2 AUC=∫tC(t)dt A method to infer the AUC of an electrophilic compound or metabolite from measured Hb adduct levels (A) has been developed and established by our research group for quantitative monitoring of exposure in humans or for application in animal studies[1],[3]. When Hb adduct formation is measured a short time after a single acute exposure, or after incubation in vitro, AUC can be calculated using Eq. 3. This equation is based on A, and the second-order reaction rate constant (kNu) for the formation of an adduct to a nucleophilic site in Hb from the concerned electrophile.3 AUC=A/kNu
(§2) For calculating the daily AUC from a longer duration of exposure, the daily adduct level increments (a) have to be calculated considering the accumulation and elimination of adducts due to lifetime of the erythrocytes (t er). […] From continuous or subchronic exposure when the exposure time (t) is shorter than t er, the accumulated adduct level is calculated [a × t × (1 − t/2t er)][49].
For in vivo data on AUC of AA and of GA from AA exposure in rats, a study on short-term oral exposure of rats was used[24]. […] Blood samples were collected and AA- and GA-adducts to N-terminal valine in Hb were measured as described above, and recalculated to the daily increment of the adduct level. […]

[2] = cited from earlier work
[3] = liver microsomes, rat (male, SD) vs. human (male); cited from earlier work
[4] = cited from earlier work; remark: listed apart in the source
[5] = In vivo dose (AUC) in human calculated from measured Hb adduct levels after AA exposure; details: human in vivo study used (dietary AA)
Experimental: as §1, §2
In vivo dose or AUC of AA and of GA in human after intake of AA-rich food was obtained from Vikström et al.[23]. […] The measured adduct levels were used to calculate the daily adduct level increment, a, and adjusted for intake per kg bw (exposure dose 11 μg AA/kg bw). […]

[6] = male rat, different AA exposure studies, various methods; cited from earlier work
[7] = set-up: method as in Doerge at al. (2005); details: male F344 rats, single dietary exposure ca. 100 µg AA/kg bw, n = 7, direct measurements; ref Doerge at al. (2005); cited from earlier work
[8] = AUC-DEB in rat calculated from measured Hb adduct levels after BD exposure; format: in vivo
Source text: (§3) In our first application of the parallelogram approach, AUC-DEB was predicted in a case study on BD exposure. […] In the case of BD, the relatively large inter-species differences in metabolism were an advantage for testing of the approach.

[9] = set-up: method as in PMID 25448046; details: human, for 1 ppm·h of BD exposure; cited from earlier work
[10] = set-up: method as in PMID 25448046; details: mouse exposed to BD; cited from earlier work
[11] = Parallelogram approach prediction of AUC-DEB in rat from BD exposure; details: from the parallelogram approach
Experimental: The inter-species extrapolation was performed using in vitro metabolic data on enzyme kinetics and published Hb adduct data[6]. This study was initiated as the AUC of DEB (AUC-DEB), in humans exposed to BD, had not been possible to measure with available methods.
as §3

[12] = set-up: method as in PMID 25448046; details: rat exposed to BD; cited from earlier work
[13] = set-up: method as in PMID 25448046; details: occupationally BD-exposed humans; cited from earlier work
[14] = set-up: method as in PMID 25448046; details: mouse, for 1 ppm·h of BD exposure; cited from earlier work
[15] = set-up: method as in PMID 25448046; details: rat, for 1 ppm·h of BD exposure; cited from earlier work

Row | SMILES | in vivo levels of AA (estimated) [1] [µM] | AUC-AA ([2]; Rat (male F344), 500 and 2000 μg AA/kg bw and day in drinking water, one week, n = 6, from Hb adducts) | AUC of AA ([2]; SD rat (male), subchronic intraperitoneal AA, Hb adducts on cysteine site) [nM·h per μg AA per kg bw] | AUC-AA ([2]; male F344 rats, single dose 0.1 mg AA/kg bw, Hb adducts, ref Tareke et al. (2006)) [nM·h/ μg AA per kg bw] | oxidation to GA, rat compared to human (times faster in rat) [3] | daily Hb adduct level increment per exposure dose ([4]; Human, AA-rich food 4 days, 11 μg AA/kg bw, adducts to N-terminal valine) | AUC-AA ([4]; Human, ca. 11 μg AA/kg bw and day through food, 4 days, n = 9, from Hb adducts) | AUC-AA ([4]; Humans, ca. 2.5 μg AA/kg bw daily through food, 28 days, n = 9, ref Vikström et al. (2011)) [nM·h/ μg AA per kg bw] | AUC-AA ([4]; Humans, single dose in drinking water 500, 1000 and 3000 µg AA/kg bw, n = 6 males, ref Fennell et al. (2005)) [nM·h/ μg AA per kg bw] | in vivo levels of AA (estimated) [5] | range of AUC-AA [6] | AUC-AA [7] [nM·h/ μg AA per kg bw] | ratio for rat-to-human of AUC-DEB per AUC-EB [8] | AUC-DEB predicted (parallelogram approach) [9] [nM·h] | AUC-DEB calculated from measured Hb adducts levels [10] [nM·h/ppm·h BD] | ratio for rat-to-human of AUC-DEB per AUC-EB [11] | AUC-DEB calculated from measured Hb adducts levels [12] [nM·h/ppm·h BD] | AUC-DEB calculated from measured Hb adducts levels [13] [nM·h/ppm·h BD] | AUC-DEB predicted (parallelogram approach) [14] [nM·h] | AUC-DEB predicted (parallelogram approach) [15] [nM·h]
1 | C=CC(N)=O [AA, Acrylamide] | ~25 | 34 ± 3 nM·h/μg AA per kg bw and 34 nM·h/μg AA per kg bw | 28.2 | 23 | ca. 3 times | 1.4 pmol/g globin per μg AA/kg bw and day | 212 ± 56 nM·h/μg AA per kg bw and 212 nM·h/μg AA per kg bw | 120 | 246 | about 100 nM | 18–80 nM·h per μg AA per kg bw | 18 | – | – | – | – | – | – | – | –
2 | C1OC1C1CO1 (centres unmarked) [DEB, 1,2:3,4-diepoxbutane] | – | – | – | – | – | – | – | – | – | – | – | – | 4.3 | 0.078 | 38 | 2.2 | 1.37 | 0.023 | 41 | 1.26
